Source: US20260258048A1, “LACTAM-CONTAINING IMIDAZOPYRIDAZINE IL-17 INHIBITOR COMPOUNDS” (Janssen Pharmaceutica NV, priority 2023, published 2026)

Experiments:
[1] = target: IL-17A(FLAG-tagged): IL-17RA(His-tagged) (Homo sapiens, UniProt Q16552, K93Q); assay: IL-17A(FLAG-tagged): IL-17RA(His-tagged) binding disruption Eu-HTRF assay; details: class of the average IC50 where tested more than once
Source text: IL-17A(FLAG-tagged): IL-17RA(His-tagged) binding disruption Eu-HTRF assay An antibody directed against the FLAG tag of IL-17A (SEQ ID NO: 1) is labeled with the HTRF donor chromophore (Europium-cryptate). IL-17A is present as a dimer that is “locked into” this quaternary structure due to the formation of loop-spanning intramolecular disulfide bridges. The construct of IL-17RA used in the assay excludes the […] portion of the receptor and is fused to a C-terminal 10×His tag (SEQ ID NO:2). An antibody directed against the His tag of the IL-17RA chimera is labeled with the HTRF acceptor chromophore (“D2”). The fluorescence-resonance energy transfer (FRET) depends on the vicinity of the donor chromophore to the acceptor, and interruption of the binding between the IL-17A and IL-17RA causes the reduction/loss of FRET. Therefore, this assay allows to evaluate the compound effect on the binding IL-17A and IL-17RA by monitoring the fluorescence intensity of donor vs acceptor. The assay is run as described below.
40 nl of 2-fold serial diluted compound solution for total 22 dilution points is added into each well of a 1536-well, white, low-volume, non-binding plate (Greiner #782904), then 2 μl of FLAG tagged IL-17A at 2× final concentration (1 μM) in solution of PBS+0.01% Triton-X100 is added to each well. The assay plate is briefly centrifuged then incubated for 1 h at rt. A mixed solution is prepared containing 2×5 nM 10HIS×IL-17RA, 2×2.5 nM Eu-anti-FLAG (CISBIO), 2×5 nM D2-anti-HIS (CISBIO) in PBS+0.01% Triton-X100+200 mM Potassium Fluoride (Sigma 60238) and 2 μl of mix is added to each well of the assay plate. The plate is briefly centrifuged then incubated for 2 h at rt. The HTRF intensities at the wavelength of donor (615 nm) and acceptor (665 nm) are measured using BMG Pherastar. The ratio between intensities at two wavelengths is calculated and plotted against the compound concentration and the data is fitted to a one-site competition model to yield IC50 of the compound.

[2] = test system: IL-17A-induced G-CSF production in human normal keratinocyte (NHK); assay: NHK assay: IL-17A-induced G-CSF production in normal human keratinocytes; assay type: cell-based; details: Homo sapiens, Keratinocyte, 24 h, IL-17A 5 ng/mL, class of the average IC50 where tested more than once
Experimental: IL-17A acts directly on keratinocytes through binding to dimeric receptor IL-17RA/RC and drives the production of a number of inflammatory mediators known to be elevated in psoriasis lesional tissue. IL-17A small molecule inhibitors that block the IL-17A to interact with IL-17R would inhibit the IL-17A signaling in its targeted cells such as keratinocytes. The compound functional activity is evaluated for its impact on IL-17A-induced G-CSF production in human normal keratinocyte (NHK).
Adult normal human keratinocytes are cultured in keratinocyte growth medium (Lonza) in a flask till reaching ~90% confluence, then cells are transferred to a 384-well plate at density of 3000-4000 cell/well. Recombinant human IL-17A (Gibco PHC9174) is pre-incubated with titrated compound or DMSO for 1 h at rt then added to the cell culture plate. The final concentration of IL-17A is 5 ng/mL and DMSO is 0.2%, in the culture containing 5% FBS. Cells are cultured/treated for 24 h at 37° C. Supernatants are collected and G-CSF production is measured through HTRF technology using Human G-CSF Kit (CisBio). G-CSF concentration was extrapolated from the standard curve and IC50 is determined using GraphPad Prism. Cell viability is also evaluated using CellTiter-Glo kit (Promega) and effect of compound on cell viability is compared to DMSO control.

Sequence of UniProt Q16552 (Q16552 with tags, fused parts or gaps K93Q): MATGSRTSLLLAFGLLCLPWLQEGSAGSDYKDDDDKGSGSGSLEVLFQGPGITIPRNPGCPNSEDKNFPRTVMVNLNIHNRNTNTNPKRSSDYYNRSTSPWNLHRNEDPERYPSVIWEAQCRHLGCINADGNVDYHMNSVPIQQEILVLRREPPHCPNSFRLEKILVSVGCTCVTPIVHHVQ

Row | IC50 [1] [µM] | Compound | IC50 [2] [µM]
1 | < 0.4 | CC1(C(=O)c2cnn3cc([C@@H](NC(=O)c4nonc4C4CC4)C4CCC(F)(F)CC4)nc3c2)C[C@@H](C(F)(F)F)NC1=O (mixture of isomers) [Example 102, 4-Cyclopropyl-N—[(S)-(4,4-difluorocyclohexyl)-[7-[(3RS,5S)-3-methyl-2-oxo-5-(trifluoromethyl)pyrrolidine-3-carbonyl]imidazo[1,2-b]pyridazin-2-yl]methyl]-1,2,5-oxadiazole-3-carboxamide] | < 0.4
2 | > 4 | O=C(N[C@H](c1cn2ncc(C[C@]34CCC[C@@H](C3)NC4=O)cc2n1)C1CCC(F)(F)CC1)c1nonc1C1CC1 (relative stereo) [Example 12, 4-Cyclopropyl-N—[(S)-(4,4-difluorocyclohexyl)-[7-[[(1S*5S*)-7-oxo-6-azabicyclo[3.2.1]octan-1-yl]methyl]imidazo[1,2-b]pyridazin-2-yl]methyl]-1,2,5-oxadiazole-3-carboxamide] | 0.4 to 4
3 | 0.4 to 4 | CC[C@@H](c1cnn2cc([C@@H](NC(=O)c3nonc3C3CC3)C3CCC(F)(F)CC3)nc2c1)[C@@H]1C[C@@H](C(F)(F)F)NC1=O (relative stereo) [Example 20, 4-Cyclopropyl-N—((S)-(4,4-difluorocyclohexyl)(7-((R*)-1-((3S*,5S)-2-oxo-5-(trifluoromethyl)pyrrolidin-3-yl)propyl)imidazo[1,2-b]pyridazin-2-yl)methyl)-1,2,5-oxadiazole-3-carboxamide] | 0.4 to 4
4 | < 0.4 | O=C(N[C@H](c1cn2ncc([C@@H]3C[C@@]34C[C@@H](C(F)(F)F)NC4=O)cc2n1)C1CCC(F)(F)CC1)c1nonc1C1CC1 (relative stereo) [Example 38, 4-Cyclopropyl-N—((S)-(4,4-difluorocyclohexyl)(7-((1S*,3R*,6S)-4-oxo-6-(trifluoromethyl)-5-azaspiro[2.4]heptan-1-yl)imidazo[1,2-b]pyridazin-2-yl)methyl)-1,2,5-oxadiazole-3-carboxamide] | 0.4 to 4
5 | > 4 | O=C(N[C@H](c1cn2ncc([C@@H]3C[C@]34C[C@@H](C(F)(F)F)NC4=O)cc2n1)C1CCC(F)(F)CC1)c1nonc1C1CC1 (relative stereo) [Example 39, 4-Cyclopropyl-N—((S)-(4,4-difluorocyclohexyl)(7-((S*,3S*,6S)-4-oxo-6-(trifluoromethyl)-5-azaspiro[2.4]heptan-1-yl)imidazo[1,2-b]pyridazin-2-yl)methyl)-1,2,5-oxadiazole-3-carboxamide] | > 4
6 | > 4 | O=C(N[C@H](c1cn2ncc([C@H]3C[C@@]34C[C@@H](C(F)(F)F)NC4=O)cc2n1)C1CCC(F)(F)CC1)c1nonc1C1CC1 (relative stereo) [Example 41, 4-Cyclopropyl-N—((S)-(4,4-difluorocyclohexyl)(7-((1R*,3R*,6S)-4-oxo-6-(trifluoromethyl)-5-azaspiro[2.4]heptan-1-yl)imidazo[1,2-b]pyridazin-2-yl)methyl)-1,2,5-oxadiazole-3-carboxamide] | > 4
7 | 0.4 to 4 | O=C(N[C@H](c1cn2ncc(C[C@H]3C(=O)NCC[C@H]3C(F)(F)F)cc2n1)C1CCC(F)(F)CC1)c1nonc1C1CC1 (relative stereo) [Example 44, 4-Cyclopropyl-N—((S)-(4,4-difluorocyclohexyl)(7-(((3R*,4R*)-2-oxo-4-(trifluoromethyl)piperidin-3-yl)methyl)imidazo[1,2-b]pyridazin-2-yl)methyl)-1,2,5-oxadiazole-3-carboxamide] | > 4
8 | 0.4 to 4 | O=C(N[C@H](c1cn2ncc(C[C@@H]3C(=O)NCC[C@@H]3C(F)(F)F)cc2n1)C1CCC(F)(F)CC1)c1nonc1C1CC1 (relative stereo) [Example 45, 4-Cyclopropyl-N—((S)-(4,4-difluorocyclohexyl)(7-(((3S*,4S*)-2-oxo-4-(trifluoromethyl)piperidin-3-yl)methyl)imidazo[1,2-b]pyridazin-2-yl)methyl)-1,2,5-oxadiazole-3-carboxamide] | > 4
9 | > 4 | Cc1nonc1C(=O)N[C@H](c1cn2ncc(C[C@H]3CC[C@H](C(F)(F)F)NC3=O)cc2n1)C1CCC(F)(F)CC1 (relative stereo) [Example 46, N—((S)-(4,4-difluorocyclohexyl)(7-(((3R*,6R*)-2-oxo-6-(trifluoromethyl)piperidin-3-yl)methyl)imidazo[1,2-b]pyridazin-2-yl)methyl)-4-methyl-1,2,5-oxadiazole-3-carboxamide] | > 4
10 | < 0.4 | Cc1nonc1C(=O)N[C@H](c1cn2ncc(C[C@H]3CC[C@@H](C(F)(F)F)NC3=O)cc2n1)C1CCC(F)(F)CC1 (relative stereo) [Example 47, N—((S)-(4,4-difluorocyclohexyl)7-(((3R*,6S*)-2-oxo-6-(trifluoromethyl)piperidin-3-yl)methyl)imidazo[1,2-b]pyridazin-2-yl)methyl)-4-methyl-1,2,5-oxadiazole-3-carboxamide] | 0.4 to 4
11 | > 4 | Cc1nonc1C(=O)N[C@H](c1cn2ncc(C[C@@H]3CC[C@H](C(F)(F)F)NC3=O)cc2n1)C1CCC(F)(F)CC1 (relative stereo) [Example 48, N—((S)-(4,4-difluorocyclohexyl)7-(((3S*,6R*)-2-oxo-6-(trifluoromethyl)piperidin-3-yl)methyl)imidazo[1,2-b]pyridazin-2-yl)methyl)-4-methyl-1,2,5-oxadiazole-3-carboxamide] | > 4
12 | 0.4 to 4 | O=C(N[C@H](c1cn2ncc(C[C@@H]3C(=O)NC[C@@H]3C(F)(F)F)cc2n1)C1CCC(F)(F)CC1)c1nonc1C1CC1 (relative stereo) [Example 49, 4-Cyclopropyl-N—((S)-(4,4-difluorocyclohexyl)(7-(((3S*,4R*)-2-oxo-4-(trifluoromethyl)pyrrolidin-3-yl)methyl)imidazo[1,2-b]pyridazin-2-yl)methyl)-1,2,5-oxadiazole-3-carboxamide] | > 4
13 | 0.4 to 4 | CC[C@H]1C[C@H](Cc2cnn3cc([C@@H](NC(=O)c4nonc4C4CC4)C4CCC(F)(F)CC4)nc3c2)C(=O)N1 (relative stereo) [Example 91, 4-Cyclopropyl-N—[(S)-(4,4-difluorocyclohexyl)-[7-[[(3S*,5S*)-5-ethyl-2-oxo-pyrrolidin-3-yl]methyl]imidazo[1,2-b]pyridazin-2-yl]methyl]-1,2,5-oxadiazole-3-carboxamide] | 
14 | > 4 | CC[C@H]1C[C@@H](Cc2cnn3cc([C@@H](NC(=O)c4nonc4C4CC4)C4CCC(F)(F)CC4)nc3c2)C(=O)N1 (relative stereo) [Example 92, 4-Cyclopropyl-N—[(S)-(4,4-difluorocyclohexyl)-[7-[[(3R*,5S*)-5-ethyl-2-oxo-pyrrolidin-3-yl]methyl]imidazo[1,2-b]pyridazin-2-yl]methyl]-1,2,5-oxadiazole-3-carboxamide] | 
15 | 0.4 to 4 | O=C(N[C@H](c1cn2ncc(CC3CCCNC3=O)cc2n1)C1CCC(F)(F)CC1)c1nonc1C1CC1 (single isomer, unassigned) [Example 23, 4-Cyclopropyl-N—[(S)-(4,4-difluorocyclohexyl)-[7-[[(3R*)-2-oxo-3-piperidyl]methyl]imidazo[1,2-b]pyridazin-2-yl]methyl]-1,2,5-oxadiazole-3-carboxamide] | 
16 | 0.4 to 4 | O=C(N[C@H](c1cn2ncc(CC3CCCNC3=O)cc2n1)C1CCC(F)(F)CC1)c1nonc1C1CC1 (single isomer, unassigned) [Example 24, 4-Cyclopropyl-N—[(S)-(4,4-difluorocyclohexyl)-[7-[[(3S*)-2-oxo-3-piperidyl]methyl]imidazo[1,2-b]pyridazin-2-yl]methyl]-1,2,5-oxadiazole-3-carboxamide] | 
